Results from the NIST ThermoML archive (doi:10.1007/s10765-007-0223-x).

Test: xn = mol fraction of the nth substance listed
Conditions: 101 kPa, Liquid; for speed of sound: Single path-length method

COC(C)(C)C [2-methoxy-2-methylpropane] + c1ccccc1
Conditions | mass density [kg/m3] | speed of sound [m/s]
305.65 K, x1 = 0.052 | 856.117 | –
305.65 K, x1 = 0.111 | 846.045 | –
305.65 K, x1 = 0.202 | 831.061 | –
305.65 K, x1 = 0.303 | 815.461 | –
305.65 K, x1 = 0.397 | 801.707 | –
305.65 K, x1 = 0.5 | 787.314 | –
305.65 K, x1 = 0.596 | 774.518 | –
305.65 K, x1 = 0.698 | 761.485 | –
305.65 K, x1 = 0.791 | 750.234 | 1047.1
305.65 K, x1 = 0.902 | 737.34 | 1021.7
305.65 K, x1 = 0.95 | 731.914 | 1010.9
305.65 K, x1 = 1 | 726.444 | 1002.4
308.15 K, x1 = 0.052 | 853.44 | 1234.9
308.15 K, x1 = 0.111 | 843.388 | 1216.5
308.15 K, x1 = 0.202 | 828.417 | 1188.9
308.15 K, x1 = 0.303 | 812.827 | 1160
308.15 K, x1 = 0.397 | 799.075 | 1134.1
308.15 K, x1 = 0.5 | 784.683 | 1106.9
308.15 K, x1 = 0.596 | 771.88 | 1082.4
308.15 K, x1 = 0.698 | 758.841 | 1057.2
308.15 K, x1 = 0.791 | 747.582 | 1035.7
308.15 K, x1 = 0.902 | 734.673 | 1010.3
308.15 K, x1 = 0.95 | 729.241 | 999.43
308.15 K, x1 = 1 | 723.763 | 990.99
310.65 K, x1 = 0.052 | 850.759 | 1223.5
310.65 K, x1 = 0.111 | 840.726 | 1205.2
310.65 K, x1 = 0.202 | 825.767 | 1177.5
310.65 K, x1 = 0.303 | 810.187 | 1148.8
310.65 K, x1 = 0.397 | 796.438 | 1122.8
310.65 K, x1 = 0.5 | 782.044 | 1095.5
310.65 K, x1 = 0.596 | 769.234 | 1071.2
310.65 K, x1 = 0.698 | 756.187 | 1046
310.65 K, x1 = 0.791 | 744.918 | 1024.3
310.65 K, x1 = 0.902 | 731.995 | 998.9
310.65 K, x1 = 0.95 | 726.556 | 988.05
310.65 K, x1 = 1 | 721.069 | 979.62
313.15 K, x1 = 0.052 | 848.07 | 1212
313.15 K, x1 = 0.111 | 838.056 | 1193.8
313.15 K, x1 = 0.202 | 823.111 | 1166.3
313.15 K, x1 = 0.303 | 807.533 | 1137.4
313.15 K, x1 = 0.397 | 793.792 | 1111.5
313.15 K, x1 = 0.5 | 779.391 | 1084.2
313.15 K, x1 = 0.596 | 766.575 | 1059.8
313.15 K, x1 = 0.698 | 753.517 | 1034.6
313.15 K, x1 = 0.791 | 742.24 | 1013
313.15 K, x1 = 0.902 | 729.301 | 987.61
313.15 K, x1 = 0.95 | 723.852 | 976.7
313.15 K, x1 = 1 | 718.357 | 968.16
315.65 K, x1 = 0.052 | 845.378 | 1200.6
315.65 K, x1 = 0.111 | 835.381 | 1182.5
315.65 K, x1 = 0.202 | 820.447 | 1155
315.65 K, x1 = 0.303 | 804.877 | 1126.2
315.65 K, x1 = 0.397 | 791.135 | 1100.3
315.65 K, x1 = 0.5 | 776.733 | 1073
315.65 K, x1 = 0.596 | 763.908 | 1048.6
315.65 K, x1 = 0.698 | 750.84 | 1023.3
315.65 K, x1 = 0.791 | 739.55 | 1001.7
315.65 K, x1 = 0.902 | 726.593 | 976.23
315.65 K, x1 = 0.95 | 721.138 | 965.31
315.65 K, x1 = 1 | 715.636 | 956.8
318.15 K, x1 = 0.052 | 842.684 | 1189.4
318.15 K, x1 = 0.111 | 832.703 | 1171.3
318.15 K, x1 = 0.202 | 817.778 | 1143.8
318.15 K, x1 = 0.303 | 802.213 | 1115
318.15 K, x1 = 0.397 | 788.472 | 1089.2
318.15 K, x1 = 0.5 | 774.062 | 1061.8
318.15 K, x1 = 0.596 | 761.226 | 1037.4
318.15 K, x1 = 0.698 | 748.147 | 1012.1
318.15 K, x1 = 0.791 | 736.847 | 990.48
318.15 K, x1 = 0.902 | 723.87 | 964.92
320.65 K, x1 = 0.052 | 840.006 | 1178.4
320.65 K, x1 = 0.111 | 830.019 | 1160.1
320.65 K, x1 = 0.202 | 815.102 | 1132.6
320.65 K, x1 = 0.303 | 799.541 | 1103.9
320.65 K, x1 = 0.397 | 785.8 | 1078.1
320.65 K, x1 = 0.5 | 771.341 | 1050.4
320.65 K, x1 = 0.596 | 758.536 | 1026.2
320.65 K, x1 = 0.698 | 745.444 | 1001
320.65 K, x1 = 0.791 | 734.13 | 979.25
320.65 K, x1 = 0.902 | 721.133 | 953.72
323.15 K, x1 = 0.052 | 837.364 | 1168
323.15 K, x1 = 0.111 | 827.342 | 1149.2
323.15 K, x1 = 0.202 | 812.432 | 1121.7
323.15 K, x1 = 0.303 | 796.876 | 1093
323.15 K, x1 = 0.397 | 783.138 | 1067.2
323.15 K, x1 = 0.5 | 768.725 | 1040
323.15 K, x1 = 0.596 | 755.841 | 1015.2
323.15 K, x1 = 0.698 | 742.756 | 990.11
323.15 K, x1 = 0.791 | 731.411 | 968.17
323.15 K, x1 = 0.902 | 718.4 | 942.69
323.15 K, x1 = 0.95 | 712.917 | 931.73
323.15 K, x1 = 1 | 707.381 | 922.97
